Measured values reported in patent US20200121721A1, “METHODS FOR GENETIC MODIFICATION OF HEMATOPOIETIC CELLS” (THE BRIGHAM AND WOMEN'S HOSPITAL, INC., priority 2014, published 2020).
Square brackets hold non-standard residues; d marks the D form. Peptide text beside a SMILES is read from it. Aoe = N[C@@H](CCCCCC(=O)[C@@H]1CO1)C(=O)O

Key:
[1] = system: cord blood CD34+CD90+ cells; settings: cited from earlier work
[2] = system: primary human CD34+ cells from PBSC; test: Screening of compounds which increase CD34+CD90+ cells (high throughput flow cytometry); type: cell-based; settings: for CD34+CD90+ population compared with that of DMSO treated CD34+ cells: PBSC CD34+ cells, 4 or 5-day culture with cytokines (CC100), FIG. 1A; for absolute number of CD34+CD90+ cells: screen, compared with other compounds, FIG. 1B
Text: Cells were stained with antihuman CD34 monoclonal antibody conjugated to phycoerythrin (PE), or allophycocyanin (APC), antihuman CD90 conjugated fluorescein isothiocyanate (FITC) or APC, CD38 APC, CD 3 tri-color (TC), CD19 TC, CD11b TC, CD41 TC, CD45 FITC and mouse CD45 APC. The flow cytometry data were collected using FACS Calibur flow cytometer (Becton Dickinson, San Jose, Calif., USA) or and analysed by using FLOWJO software.
To identify or confirm the molecules that expand CD34+CD90+ cells, the Inventors developed an assay using primary human CD34+ cells from PBSC and evaluated CD34 and CD90 expression by high throughput flow cytometry after a 4 or 5-day culture.
Using this assay, the Inventors screened FDA approved 446 compounds and 14 small molecule drugs including a panel of epigenetic modifiers as shown in Table 2. Human PBSC CD34+ cells were purified and cultured in IMDM with fetal bovine serum (FBS; GIBCO; final concentration 30%) and CC100 (a CD34 maintaining culture medium containing stem cell factor; SCF, Flt3 ligand; FL, Interleukin-3; IL3 and Interleukin-6; IL6; Stem Cell Technologies).

CD34+ cells [3] = test: Annexin V staining (apoptosis); type: cell-based, human; settings: day 3, 5 and 7
Description: To investigate whether the lower total nucleated cell number observed in TSA treated culture was possibly due to apoptosis, annexin V staining with TSA, MS275 or DMSO treated cells on day 3, 5 and 7 was performed.

PBSC CD34+ cells [4] = test: Ex vivo culture of PBSC CD34+ cells with TSA or MS275 (CD34+CD90+ expansion, cell growth); type: cell-based, human; settings: for expression of CD34+CD90+ cells after one day exposure: 24 hours exposure then washed or not washed, evaluated on day 3 and day 5; for growth rate compared with DMSO / cell growth (cell number) of CD34+ cells: FIG. 3A; for cell growth (cell number) of CD34+ cells: mean±SDV of three experiments; for absolute number of CD34+CD90+ cells: from day 5 to day 7
PBMC CD34+ cells [5] = test: In vitro colony formation in methylcellulose (CFU assay); type: cell-based, human; settings: eight days after plating
Description: Tubes of MethoCult® H4434 (Stem Cell Technologies) medium were thawed overnight in a 4° C. refrigerator. The next morning CB CD34+ cells were prepared at 10× the final concentration required. Cell suspensions of 2000 cells per 0.3 mL were prepared. Cells were added to 3 mL of MethoCult® medium for duplicate cultures. A 16 gauge blunt-end needle attached to a 3 cc syringe was used to dispense the cells and MethoCult® medium into culture dishes. 1.1 mL of cells was dispensed per 35 mm dish. The two dishes were placed into a 100 mm petri dish and a third, uncovered 35 mm dish containing 3 mL of sterile water was also added. All 3 dishes were then covered within the 100 mm petri dish. […] […] CFUs were counted under the microscopy.
Since the CD34+CD90+ cells are a CD34+ subpopulation with severe combined immunodeficient (SCID) repopulating activity (SRA), The Inventors next test whether the preferential expansion of these cells mediated by TSA or MS-275 treatment can lead to increased hematopoietic differentiation/proliferation in vitro and SRA engraftment in vivo. The Inventors first treated PBMC CD34+ cells with TSA or MS-275 treatments followed by assessment of in vitro colony formation in methylcellulose. […] To quantify large and small colonies, The Inventors classified as large as >50 and small as 5-50 clusters, respectively.

CD34+ cells [6] = test: UM171 effect on division of CD34+ cells (total cell numbers); type: cell-based; settings: 50 nM to 500 nM (1 uM); commercial and synthesized UM171
CB CD34+ cells = test: Engraftment of cultured CD34+ cells in NSG mice (SCID repopulating activity); type: in vivo
Description: NSG (NOD.Cg-Prkdcscid Il2rgtm1Wjl/SzJ, The Jackson Laboratory, ME, USA) mice were bred and maintained in the Children's Hospital Boston animal facility. All animal work has been approved by and done according to the guidelines of the IACUC under protocol 10-101832. The CB CD34+ cells treated with wild type-peptide and scrambled-peptide were injected intravenously via the tail vein into sub-lethally irradiated (220 rads) 8 to 16-week-old NSG mice. Engraftment was performed within 24 h after irradiation. Peripheral blood (PB) chimerism was monitored at 2 and 8 weeks post transplantation. Bone marrow (BM) chimerism was monitored at 8 weeks post transplantation. […] The percentage of human CD45+ cells was calculated as follows: % human CD45+ cells=No. human CD45+ cells/(No. human CD45+ cells + No. mouse CD45+ cells)×100. […]
Based on in vitro phenotypic analysis described above, The Inventors transplanted cells after culture for 5 or7 days with cytokine alone or TSA into NSG mice to evaluate immunodeficient (SCID) repopulating activity (SRA) as a measure of enhanced HSPC function. Because Vanheuden et al, reported that severe combined immunodeficient (SCID) repopulating activity (rSRA) is mediated by CD34+CD38CD90+CD45RA− cells after in vitro culture, the Inventors first analyzed SRA activity in peripheral blood (PB) 2 weeks after transplant.

CD34+ cells [7] = test: CFSE labeling to assess cell division; type: cell-based, human; settings: by day 5, CFSE
Description: Primary CD34+ cells were labeled for 10 minutes at 37° C. with 0.5 uM of carboxyfluorescein diacetate succinimidyl ester (CSFE; Invirtogen, NY, USA) in PBS. After […] of culture, cell were labeled with CD34 PE and analyzed for a progressive decline of fluoredcence intensity of CSFE using FACSCalibur flow cytometer.
To assess whether the lower total nucleated cell number observed in TSA treated culture was due to a delay in differentiation or proliferation, the Inventors performed a cell-division-monitoring dye carboxyfluorescein succinimidyl ester (CFSE) assay, a fluorescent cytoplasmic dye which allowed counting of cell divisions of CD34+ cells after in vitro culture. While 66.0% of non-treated CD34+ cells divided at least more than 4 times by day 5, only 9.02% of TSA treated cells went through a similar number of cell divisions (FIG. 3B).
The Inventors then investigated whether TSA treatment led to increased CD34+CD90+ cells through self-renewal proliferation as assessed by surface markers. Using CD34+CD90− cells as a control population, the cell division profile of CD34+CD90+ cells upon TSA treatment was analyzed using the CSFE assay after 5 and 7 days of in vitro culture.

PBMC CD34+ cells [8] = test: Lentiviral transduction (GFP vector) of CD34+ cells; type: cell-based, human
Description: Lentiviral particles were generated by transient co-transfection of 293T cells with the lentiviral vectors pLL3.7, pHR'8.9ΔVPR and pCMV-VSVG. CD34+ cells were infected in medium containing lentiviral particles and 8 μg/ml protamin. The culture medium was then removed and replaced with fresh media.
Next, the Inventors investigated whether expansion of CD34+CD90+ cells by TSA could affect the lentiviral transduction efficacy. A transfer vector encoding green fluorescent protein (GFP) was used for evaluation of lentiviral transduction. PBMC CD34+ cells were cultured with or without TSA for 3 days, followed by lentiviral transduction with protamin twice for 48 hours (FIG. 15A).

PBSC CD34+ cells [9] = test: Real-time PCR of stem cell related genes; type: cell-based, human; settings: 3 days of culture, relative to DMSO, p<0.05
Text: Inventors prepared RNA from cells treated with wild-type or scrambled peptide using TRIzol (Invitrogen). The Inventors synthesized cDNA using iScript cDNA Synthesis kit (Bio-Rad, CA, USA). To quantitate the level of mRNAs expression, The Inventors carried out polymerase chain reaction (PCR) amplification using iScript one-step RT-PCR kit with SYBER Green (Bio-Rad) and the PCR products were detected by use of SYBR green technology (ABI, Foster City, Calif., USA). GAPDH was used as an endogenous control. All samples were run in duplicate. Thermal cycler conditions were 50° C. for 2 minutes, 95° C. for 10 minutes, and 45 cycles of 95° C. for 0.30 minutes and 60° C. for 1 minute. Results were obtained as threshold cycle (Ct) values and normalized gene expression with GAPDH. Data were analyzed based on 2-ΔΔCT method using CFX Manager software (Bio-Rad). For QPCR primers see Table 1.
Next, to investigate the molecular mechanism responsible for the expansion of functional HSCs and HSPC observed following TSA treatment, the Inventors examined expression levels of a number of genes involved in self-renewal or differentiation of stem cells using realtime PCR.

O=C1N[C@@H](Cc2ccccc2)C(=O)N2CCC[C@@H]2C(=O)N[C@@H](CCCCCC(=O)[C@@H]2CO2)C(=O)N[C@H]1Cc1ccccc1 [trapoxin] (cyclo(FF[dP][Aoe]))
expansion of CD34+CD90+ cells (reported) [1]: reported to expand CD34+CD90+ cells

COc1cc2c(NC3CCN(C(C)C)CC3)nc(C3CCCCC3)nc2cc1OCCCN1CCCC1 [UNC0638]
CD34+CD90+ population compared with that of DMSO treated CD34+ cells [2]: expanded CD34+CD90+ population

CCCC(CCC)C(=O)O [Valproic acid]
expansion of CD34+CD90+ cells (reported) [1]: reported to expand CD34+CD90+ cells

Nc1ccccc1NC(=O)c1ccc(CNC(=O)OCc2cccnc2)cc1 [MS275]
apoptotic cells (annexin V) (CD34+ cells [3]; 500 nM): did not significantly increased apoptotic cells
expression of CD34+CD90+ cells after one day exposure (PBSC CD34+ cells [4]): limit the expression of CD34+CD90+ cells
growth rate compared with DMSO (PBSC CD34+ cells [4]): about 2 times lower
cell growth (cell number) of CD34+ cells (PBSC CD34+ cells [4]): 16.7×10^4±1.06
absolute number of CD34+CD90+ cells (PBSC CD34+ cells [4]): increased
size of colonies derived from CFU-GM compared with control group (PBMC CD34+ cells [5]): much larger than control group
CD34+CD90+ population compared with that of DMSO treated CD34+ cells [2]: expanded CD34+CD90+ population
absolute number of CD34+CD90+ cells [2]: expanded the absolute number of CD34+CD90+ cells more than that of other compounds

Cn1nnc(-c2ccc3c(c2)[nH]c2nc(Cc4ccccc4)nc(NC4CCC(N)CC4)c23)n1 (stereo not drawn) [UM171]
total cell numbers (CD34+ cells [6]): very similar

CC(/C=C/C(=O)NO)=C\[C@@H](C)C(=O)c1ccc(N(C)C)cc1 [TSA, trichostatin]
apoptotic cells (annexin V) (CD34+ cells [3]; 50 nM): did not significantly increased apoptotic cells
expression of CD34+CD90+ cells after one day exposure (PBSC CD34+ cells [4]): limit the expression of CD34+CD90+ cells
growth rate compared with DMSO (PBSC CD34+ cells [4]): about 2 times lower
cell growth (cell number) of CD34+ cells (PBSC CD34+ cells [4]): 28.3×10^4±0.49
expansion of CD34+CD90+ cells compared with DMSO treated cells (PBSC CD34+ cells [4]; day 3, day 5 and day 7, p<0.05): preferential expansion of CD34+CD90+ cells
absolute number of CD34+CD90+ cells (PBSC CD34+ cells [4]): increased
percentage of human CD45+ engraftment in peripheral blood (CB CD34+ cells; 2 weeks after transplant, day 5 progeny of 2×10^4 CB CD34+ cells, vs cytokine alone): higher percentage of human CD45+ engraftment
marrow-repopulating potential (human CD45+ cell engraftment in PB and BM) (CB CD34+ cells; 8 weeks after transplantation): enhances the marrow-repopulating potential
expansion of CD34+CD90+ cells (reported) [1]: reported to expand CD34+CD90+ cells
size of colonies derived from CFU-GM compared with control group (PBMC CD34+ cells [5]): much larger than control group
proportion of large (>50 clusters) and small (5-50 clusters) colonies (PBMC CD34+ cells [5]; FIG. 13B): gave mainly rise to large colonies
CD34+CD90+ cells less divided than CD34+CD90− cells (CD34+ cells [7]; TSA treatment): 31.4%
CD34+CD90+ cells more divided than CD34+CD90− cells (CD34+ cells [7]; TSA treatment): about 66.7%
CD34+ cells divided at least more than 4 times (CD34+ cells [7]): 9.02%
lentiviral transduction for CD34+ cells ex vivo (PBMC CD34+ cells [8]): promoted the lentiviral transduction
percentage of CD34+GFP+ cells (PBMC CD34+ cells [8]; 3 days culture with TSA, then lentiviral transduction, vs cells without treatment): higher than that of cells without treatment
levels of transcripts for GATA1, GATA2, HOXA9, HOXB4, PTEN, SALL4, p53, TPO and CD34 genes (PBSC CD34+ cells [9]): higher levels of transcripts
CD34+CD90+ population compared with that of DMSO treated CD34+ cells [2]: expanded CD34+CD90+ population
absolute number of CD34+CD90+ cells [2]: expanded the absolute number of CD34+CD90+ cells more than that of other compounds

CC(C)n1cnc2c(NCCc3ccc(O)cc3)nc(-c3csc4ccccc34)nc21 [SR1]
CD34+CD90+ population compared with that of DMSO treated CD34+ cells [2]: expanded CD34+CD90+ population

O=C(CCCCCCC(=O)Nc1ccccc1)NO [SAHA]
CD34+CD90+ population compared with that of DMSO treated CD34+ cells [2]: expanded CD34+CD90+ population
